From US7662222B2, “Method and use of nanoparticles to bind biocides in paints” (I-Tech AB, priority 2005, dated 2010)
“Also recorded” adds a separate entry of the source.

What was measured:
barnacles = conditions: reported pharmacological compounds; cited from earlier work
[1] = CuO (5 μm) instead of nanoparticle, o-xylene
Description: The different nanoparticles used (ZnO, CuO, Al2O3, MgO, TiO2, CO3O4) were bought from Sigma (Sigma-Aldrich Sweden AB, Stockholm, Sweden) and used without further purification. 50 ml of o-xylene was added to a beaker to which 50 mM of Medetomidine (Orion Pharma, Helsinki, Finland) was added. Nanoparticles were then added and after each addition the amount of free Medetomidine was measured with HPLC-UV (as in example 1 above).

[2] = adsorption of biocides onto CuO and ZnO nanoparticles in o-xylene, non-adsorbed biocide by HPLC-UV; type: physicochemical; conditions: biocide 50 mM
Description: To 50 ml of the solvent o-xylene, the biocide was added at a total concentration of 50 mM. Nano-particles (Sigma-Aldrich Sweden AB, Stockholm, Sweden) were then added in relevant concentrations according to the test protocol and after each addition the concentration of non-adsorbed Medetomidine (Orion Pharma, Helsinki, Finland) was measured with a standard HPLC-UV technique. The UV-absorbance maximum of Medetomidine was, from the literature, found to be 220 nm. Prior to the HPLC analysis the UV-absorbance maximum was investigated in order to verify the value given from the literature using a UV-spectrometer (GBC 920 UV/visible spectrometer, Scientific Equipments Ltd., Victoria, Australia).
The samples were analysed on a HPLC-UV system consisting of a Merck-Hitachi L-6200 pump (Merck-Hitachi, Darmstadt, Germany), a Supelco Discovery® (Sigma-Aldrich Sweden AB, Stockholm, Sweden) C18 (25 cm×4.6 mm, 5 m) column fitted with a prefilter (0.5 μm) and a Spectra-Physics Spectra 100 UV (Spectra-Physics Inc, Irvine Calif., USA) operating at 220 nm. The mobile phase was MilliQ-water:Acetonitrile (0.1% TFA v/v (mobile phase A): 0.1% TFA v/v (mobile phase B)) run over a gradient (6% B for two min then an increase up to 60% B in 15 min, a further increase up to 100% B in 3 min and then isocratic for 3 min before returning to the starting values in 2 min) at a flow rate of […]. The peak separation was monitored by UV (220 nm). Manual injections of 100 micro-liter were made and the data was collected and integrated using the Millenium software (version 3.20, 1999)(Waters Inc, Milford Mass., USA).

For `CCCN1CCc2cccc3c2[C@H]1Cc1ccc(O)c(O)c1-3` [R (−)-NPA], the “effect on attachment / settlement of barnacles” value (barnacles) is listed as “inhibitory properties”.

For `O=C(c1ccc(F)cc1)C1CCN(CCn2c(=O)[nH]c3ccccc3c2=O)CC1` [Ketanserin], the “effect on attachment / settlement of barnacles” value (barnacles) is listed as “inhibitory properties”.

For `Cc1cccc(C(C)c2cnc[nH]2)c1C` (racemic) [Medetomidine, (S,R)-4(5)-[1-(2,3-dimethylphenyl)ethyl]-1H-imidazole], the “effect on attachment / settlement of barnacles” value (barnacles) is given as “efficient inhibitor”, the “Medetomidine adsorption onto micrometer sized particle” value [1] is given as “negligible” and the “adsorption of antifouling agent onto nanoparticles” value [2] is given as “Large fractions of Medetomidine are adsorbed already at low particle concentrations; also recorded: best adsorption”.

In the case of `CSc1nc(NC2CC2)nc(NC(C)(C)C)n1` [igarol, 2-methylthio-4-tert-butylamino-6-cyclopropylamino-s-triziane], the “adsorption of antifouling agent onto nanoparticles” value [2] is reported as “exhibited adsorption”.

In the case of `CN(C)C(=O)Nc1ccc(Cl)c(Cl)c1` [diuron, 3-(3,4-dichlorophenyl)-1,1-dimethylurea], the “adsorption of antifouling agent onto nanoparticles” value [2] is reported as “exhibited adsorption”.

For `CC(C)C[C@H]1C(=O)N2CCC[C@H]2[C@]2(O)O[C@](NC(=O)[C@@H]3C=C4c5cccc6[nH]c(Br)c(c56)C[C@H]4N(C)C3)(C(C)C)C(=O)N12` [(+)-Bromocriptine], the “effect on attachment / settlement of barnacles” value (barnacles) is given as “inhibitory properties”.

For `CCCCCCCCn1sc(Cl)c(Cl)c1=O` [SeaNine, 4,5-dichloro-2-n-octyl-3(2H)-isothiazolone], the “adsorption of antifouling agent onto nanoparticles” value [2] was “exhibited adsorption”.
